Patent US20060057559A1, “High-throughput cell migration screening assay” (Rigel Pharmaceuticals, Inc., priority 2004, published 2006)
“Also recorded” adds a separate entry of the source. Where a name gives a salt, the structure may show the parent alone.

Assays:
EDG1 = biological target: T1, EDG1 (Homo sapiens, UniProt P21453); test: Migration assay employing EDG1 as a migration molecule (T lymphoid cells overexpressing EDG1 migrating toward S1P, 96-well, CyQuant GR fluorescence); assay type: cell-based; settings: migration in response to S1P, hydrochloride
T1 construct: expressed in transfected cells; host or cells: T lymphoid cell line (Jurkat, EDG1 #15 clone), retroviral TIM EDG1 vector, tetracycline-regulated
Procedure: (§1) Both cell lines were used to optimize assay parameters in order to maximize accuracy and throughput in an automated 96-well format. Compounds were added together with S1P in bottom receiver plate; lipid starved cells were placed in the upper filter plate. The T cell migration may be finished in 2 to 4 hours. The cells which migrated to the receiver plate were stained with a fluorescence dye (CyQuant GR™) and detected by a fluorescence plate reader.
On day one, EDG1 expressing cells were grown at 0.4 millions/ml in RPMI 1640 containing 10% lipid-free serum (Charcoal-Dextran-Stripped Fetal Bovine Serum, Cat# 100-502 (Gemini Bioproducts™)) for 24 hours. EDG1 cells are maintained below 1 million/ml at all times. On the next day, cells were spun down, washed once with serum-free medium and re-suspended in RPMI 1640 containing 0.1% BSA (fat-free, cell culture tested) (Cat# A8806 (SIGMA ALDRICH FLUKA CHEMICALS™)) at a density of 6×10^6 per ml. 170 μl RPMI 1640 (0.1% BSA) containing 20 nM S1P (Cat# SL-140 (BioMol™)) and/or desired drugs were added to the receiver plate of […] Millipore Multiscreen MIC™ plates (Cat# MAMI C3S 10, 3 um pore size (Millipore™)) and the filter plates were carefully placed over the receiver plate. […] After 30 min agitating at RT, the plate was read in a fluorescence plate reader using 480/520 nm filter set.

EDG3 = biological target: T2, EDG3 (Homo sapiens, UniProt Q99500); test: Migration assay employing EDG3 as a migration molecule (T lymphoid cells overexpressing EDG3 migrating toward S1P, 96-well, CyQuant GR fluorescence); assay type: cell-based
T2 construct: expressed in transfected cells; host or cells: T lymphoid cell line (Jurkat, EDG3 #1 clone), pNIGEDG3 vector, constitutive expression
Procedure: as §1
On day one, EDG3 expressing cells were grown at 0.8 millions/ml in RPMI 1640 containing 10% lipid-free serum (Charcoal-Dextran-Stripped Fetal Bovine Serum, Cat# 100-502 (Gemini Bioproducts™)) for 24 hours. EDG3 cells are maintained below 3 million/ml at all times. On the next day, cells were spun down, washed once with serum-free medium and re-suspended in RPMI 1640 containing 0.1% BSA (fat-free, cell culture tested) (Cat# A8806 (SIGMA ALDRICH FLUKA CHEMICALS™)) at a density of 8×10^6 per ml. 170 μl RPMI 1640 (0.1% BSA) containing 60 nM S1P (Cat# SL-140 (BiOMOl™)) and/or desired drugs were added to the receiver plate of […] Millipore Multiscreen MIC plates (Cat# MAMI C3S 10, 3 um pore size (Millipore™)) and the filter plates were carefully placed over the receiver plate. […] After 30 min agitating at RT, the plate was read in a fluorescence plate reader using 480/520 nm filter set.

T2 sequence (Q99500 whole entry): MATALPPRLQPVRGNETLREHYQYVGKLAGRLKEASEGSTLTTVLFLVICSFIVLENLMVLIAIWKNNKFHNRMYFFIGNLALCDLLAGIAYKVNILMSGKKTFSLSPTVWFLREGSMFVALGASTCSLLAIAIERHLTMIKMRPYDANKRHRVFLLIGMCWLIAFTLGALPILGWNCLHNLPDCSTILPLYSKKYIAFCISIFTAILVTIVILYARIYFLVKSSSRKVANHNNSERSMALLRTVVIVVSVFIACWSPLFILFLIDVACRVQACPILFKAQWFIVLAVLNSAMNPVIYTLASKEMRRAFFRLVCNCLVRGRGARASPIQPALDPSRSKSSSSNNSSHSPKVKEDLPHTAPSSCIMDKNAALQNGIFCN
T1 sequence (P21453 whole entry): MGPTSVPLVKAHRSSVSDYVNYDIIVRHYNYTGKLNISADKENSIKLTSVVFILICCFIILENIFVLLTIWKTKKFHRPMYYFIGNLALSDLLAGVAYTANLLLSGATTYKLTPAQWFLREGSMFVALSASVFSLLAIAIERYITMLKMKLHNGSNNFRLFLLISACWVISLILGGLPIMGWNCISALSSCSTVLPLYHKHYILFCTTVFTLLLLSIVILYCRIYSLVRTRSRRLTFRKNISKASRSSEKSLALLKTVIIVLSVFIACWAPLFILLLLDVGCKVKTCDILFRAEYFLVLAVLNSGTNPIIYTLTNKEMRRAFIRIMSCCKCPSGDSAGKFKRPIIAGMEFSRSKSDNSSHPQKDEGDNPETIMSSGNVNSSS

SMILES | inhibition of migration of EDG1 #15 clone (EDG1) | differential inhibition of EDG1 and EDG3 migration (EDG3; EDG1 versus EDG3 clones, FIG. 10B) | inhibition of migration of EDG3 #1 clone (EDG3; EDG3-overexpressing T lymphoid cells, migration in response to S1P)
CCCCCCCCc1ccc(CCC(N)(CO)CO)cc1 [FTY720, 2-amino-2(2-[4-octylphenylethyl)-1,3-propanediol hydrochloride] | inhibition of migration; also recorded: specifically inhibit; also recorded: inhibits the migration of EDG1#15 clone |  | 
Cc1ccc(C(=O)Nc2ccc(S(=O)(=O)O)c3cc(S(=O)(=O)O)cc(S(=O)(=O)O)c23)cc1NC(=O)c1cccc(NC(=O)Nc2cccc(C(=O)Nc3cc(C(=O)Nc4ccc(S(=O)(=O)O)c5cc(S(=O)(=O)O)cc(S(=O)(=O)O)c45)ccc3C)c2)c1 [suramin] |  | differential inhibition of EDG1 and EDG3 migration | specifically inhibit; also recorded: inhibition of EDG3 #1 clone migration
